# Assay results: patent publication US20100099561A1, “HETEROBICYCLIC ALKYLTHIO-BRIDGED ISOXAZOLINES” (E.I. DU PONT DE NEMOURS AND COMPANY, priority 2008, published 2010)
# Assays:
# Format in all cases: in vivo
# Details in all cases: 21 days, scale 0 to 100
# [1] = system: blackgrass (Alopecurus myosuroides); test: Test C preemergence, blackgrass
# Text: (§1) Seeds of plant species selected from annual bluegrass (Poa annua), blackgrass (Alopecurus myosuroides), canarygrass (Phalaris minor), gallium, (catchweed bedstraw, Galium aparine), chickweed (Stellaria media), downy bromegrass (Bromus tectorum), field poppy (Papaver rhoeas), field violet (Viola arvensis), green foxtail (Setaria viridis), deadnettle (henbit deadnettle, Lamium amplexicaule), Italian ryegrass (Lolium multiflorum), kochia (Kochia scoparia), lambsquarters (Chenopodium album), oilseed rape (Brassica napus), pigweed (Amaranthus retroflexus), Russian thistle (Salsola kali), spring barley (Hordeum vulgare), spring wheat (Triticum aestivum), wild buckwheat (Polygonum convolvulus), wild mustard (Sinapis arvensis), wild oat (Avena fatua), wild radish (Raphanus raphanistrum), windgrass (Apera spica-venti), winter barley (Hordeum vulgare), and winter wheat (Triticum aestivum) were planted and treated preemergence with test chemicals formulated in a non-phytotoxic solvent mixture which included a surfactant.
# (§2) Treated plants and controls were maintained in a controlled growth environment for 21 days after which time all species were compared to controls and visually evaluated. Plant response ratings, summarized in Table C, are based on a scale of 0 to 100 where 0 is no effect and 100 is complete control. A dash (-) response means no test result.
# wild oat (Avena fatua) = test: Test C preemergence, wild oat
# Text: as §1, §2
# [2] = system: annual bluegrass (Poa annua); test: Test C preemergence, annual bluegrass
# Text: as §1, §2
# [3] = system: windgrass (Apera spica-venti); test: Test C preemergence, windgrass
# Text: as §1, §2
# [4] = system: gallium, (catchweed bedstraw, Galium aparine); test: Test C preemergence, galium
# Text: as §1, §2
# [5] = system: chickweed (Stellaria media); test: Test C preemergence, chickweed
# Text: as §1, §2
# [6] = system: downy bromegrass (Bromus tectorum); test: Test C preemergence, downy bromegrass
# Text: as §1, §2
# [7] = system: Russian thistle (Salsola kali); test: Test C preemergence, Russian thistle
# Text: as §1, §2
# [8] = system: winter wheat (Triticum aestivum); test: Test C preemergence, winter wheat
# Text: as §1, §2
# [9] = system: lambsquarters (Chenopodium album); test: Test C preemergence, lambsquarters
# Text: as §1, §2
# [10] = system: winter barley (Hordeum vulgare); test: Test C preemergence, winter barley
# Text: as §1, §2
# [11] = system: oilseed rape (Brassica napus); test: Test C preemergence, oilseed rape
# Text: as §1, §2
# [12] = system: pigweed (Amaranthus retroflexus); test: Test C preemergence, pigweed
# Text: as §1, §2
# [13] = system: green foxtail (Setaria viridis); test: Test C preemergence, green foxtail
# Text: as §1, §2
# [14] = system: spring wheat (Triticum aestivum); test: Test C preemergence, spring wheat
# Text: as §1, §2
# [15] = system: spring barley (Hordeum vulgare); test: Test C preemergence, spring barley
# Text: as §1, §2
# [16] = system: canarygrass (Phalaris minor); test: Test C preemergence, canarygrass
# Text: as §1, §2
# [17] = system: wild radish (Raphanus raphanistrum); test: Test C preemergence, wild radish
# Text: as §1, §2
smiles,measurement,setting,value
"CC1(C)CC(S(=O)(=O)Cc2c(C(F)(F)F)nc3n(c2=O)CCCC3)=NO1 [Compound 8, 3-[[(4,5-dihydro-5,5-dimethyl-3-isoxazolyl)sulfonyl]methyl]-6,7,8,9-tetrahydro-2-(trifluoromethyl)-4H-pyrido[1,2-α]pyrimidin-4-one]","Plant response rating, Blackgrass",[1]; 16 g ai/ha,0
same,"Plant response rating, Blackgrass",[1]; 31 g ai/ha,0
same,"Plant response rating, Blackgrass",[1]; 62 g ai/ha,20
same,"Plant response rating, Blackgrass",[1]; 125 g ai/ha,35
same,"Plant response rating, Oat, Wild",wild oat (Avena fatua); 16 g ai/ha,0
same,"Plant response rating, Oat, Wild",wild oat (Avena fatua); 31 g ai/ha,0
same,"Plant response rating, Oat, Wild",wild oat (Avena fatua); 62 g ai/ha,0
same,"Plant response rating, Oat, Wild",wild oat (Avena fatua); 125 g ai/ha,0
same,"Plant response rating, Bluegrass",[2]; 16 g ai/ha,0
same,"Plant response rating, Bluegrass",[2]; 31 g ai/ha,0
same,"Plant response rating, Bluegrass",[2]; 62 g ai/ha,0
same,"Plant response rating, Bluegrass",[2]; 125 g ai/ha,0
same,"Plant response rating, Windgrass",[3]; 16 g ai/ha,0
same,"Plant response rating, Windgrass",[3]; 31 g ai/ha,0
same,"Plant response rating, Windgrass",[3]; 62 g ai/ha,35
same,"Plant response rating, Windgrass",[3]; 125 g ai/ha,90
same,"Plant response rating, Galium",[4]; 16 g ai/ha,0
same,"Plant response rating, Galium",[4]; 31 g ai/ha,0
same,"Plant response rating, Galium",[4]; 62 g ai/ha,0
same,"Plant response rating, Galium",[4]; 125 g ai/ha,0
same,"Plant response rating, Chickweed",[5]; 16 g ai/ha,0
same,"Plant response rating, Chickweed",[5]; 31 g ai/ha,0
same,"Plant response rating, Chickweed",[5]; 62 g ai/ha,0
same,"Plant response rating, Chickweed",[5]; 125 g ai/ha,40
same,"Plant response rating, Bromegrass, Downy",[6]; 16 g ai/ha,0
same,"Plant response rating, Bromegrass, Downy",[6]; 31 g ai/ha,0
same,"Plant response rating, Bromegrass, Downy",[6]; 62 g ai/ha,0
same,"Plant response rating, Bromegrass, Downy",[6]; 125 g ai/ha,0
same,"Plant response rating, Russian Thistle",[7]; 16 g ai/ha,0
same,"Plant response rating, Russian Thistle",[7]; 31 g ai/ha,0
same,"Plant response rating, Russian Thistle",[7]; 62 g ai/ha,0
same,"Plant response rating, Russian Thistle",[7]; 125 g ai/ha,0
same,"Plant response rating, Wheat, Winter",[8]; 16 g ai/ha,0
same,"Plant response rating, Wheat, Winter",[8]; 31 g ai/ha,0
same,"Plant response rating, Wheat, Winter",[8]; 62 g ai/ha,0
same,"Plant response rating, Wheat, Winter",[8]; 125 g ai/ha,0
same,"Plant response rating, Lambsquarters",[9]; 16 g ai/ha,0
same,"Plant response rating, Lambsquarters",[9]; 31 g ai/ha,0
same,"Plant response rating, Lambsquarters",[9]; 62 g ai/ha,0
same,"Plant response rating, Lambsquarters",[9]; 125 g ai/ha,0
same,"Plant response rating, Barley, Winter",[10]; 16 g ai/ha,0
same,"Plant response rating, Barley, Winter",[10]; 31 g ai/ha,0
same,"Plant response rating, Barley, Winter",[10]; 62 g ai/ha,0
same,"Plant response rating, Barley, Winter",[10]; 125 g ai/ha,0
same,"Plant response rating, Oilseed Rape",[11]; 16 g ai/ha,0
same,"Plant response rating, Oilseed Rape",[11]; 31 g ai/ha,0
same,"Plant response rating, Oilseed Rape",[11]; 62 g ai/ha,0
same,"Plant response rating, Oilseed Rape",[11]; 125 g ai/ha,0
same,"Plant response rating, Pigweed",[12]; 16 g ai/ha,0
same,"Plant response rating, Pigweed",[12]; 31 g ai/ha,0
same,"Plant response rating, Pigweed",[12]; 62 g ai/ha,0
same,"Plant response rating, Pigweed",[12]; 125 g ai/ha,0
same,"Plant response rating, Foxtail, Green",[13]; 16 g ai/ha,0
same,"Plant response rating, Foxtail, Green",[13]; 31 g ai/ha,0
same,"Plant response rating, Foxtail, Green",[13]; 62 g ai/ha,15
same,"Plant response rating, Foxtail, Green",[13]; 125 g ai/ha,60
same,"Plant response rating, Wheat, Spring",[14]; 16 g ai/ha,0
same,"Plant response rating, Wheat, Spring",[14]; 31 g ai/ha,0
same,"Plant response rating, Wheat, Spring",[14]; 62 g ai/ha,0
same,"Plant response rating, Wheat, Spring",[14]; 125 g ai/ha,0
same,"Plant response rating, Barley, Spring",[15]; 16 g ai/ha,0
same,"Plant response rating, Barley, Spring",[15]; 31 g ai/ha,0
same,"Plant response rating, Barley, Spring",[15]; 62 g ai/ha,0
same,"Plant response rating, Barley, Spring",[15]; 125 g ai/ha,0
same,"Plant response rating, Canarygrass",[16]; 16 g ai/ha,0
same,"Plant response rating, Canarygrass",[16]; 31 g ai/ha,0
same,"Plant response rating, Canarygrass",[16]; 62 g ai/ha,0
same,"Plant response rating, Canarygrass",[16]; 125 g ai/ha,20
CC1(C)CC(S(=O)(=O)Cc2c(C(F)(F)F)nc3n(c2=O)CCS3)=NO1 [Compound 6],"Plant response rating, Blackgrass",[1]; 125 g ai/ha,98
same,"Plant response rating, Oat, Wild",wild oat (Avena fatua); 31 g ai/ha,20
same,"Plant response rating, Oat, Wild",wild oat (Avena fatua); 62 g ai/ha,25
same,"Plant response rating, Oat, Wild",wild oat (Avena fatua); 125 g ai/ha,25
same,"Plant response rating, Oat, Wild",wild oat (Avena fatua); 250 g ai/ha,30
same,"Plant response rating, Bluegrass",[2]; 31 g ai/ha,20
same,"Plant response rating, Bluegrass",[2]; 62 g ai/ha,20
same,"Plant response rating, Bluegrass",[2]; 125 g ai/ha,20
same,"Plant response rating, Bluegrass",[2]; 250 g ai/ha,90
same,"Plant response rating, Windgrass",[3]; 125 g ai/ha,20
same,"Plant response rating, Galium",[4]; 31 g ai/ha,0
same,"Plant response rating, Galium",[4]; 62 g ai/ha,0
same,"Plant response rating, Galium",[4]; 125 g ai/ha,0
same,"Plant response rating, Galium",[4]; 250 g ai/ha,0
same,"Plant response rating, Chickweed",[5]; 31 g ai/ha,0
same,"Plant response rating, Chickweed",[5]; 62 g ai/ha,0
same,"Plant response rating, Chickweed",[5]; 125 g ai/ha,0
same,"Plant response rating, Chickweed",[5]; 250 g ai/ha,50
same,"Plant response rating, Bromegrass, Downy",[6]; 31 g ai/ha,0
same,"Plant response rating, Bromegrass, Downy",[6]; 62 g ai/ha,0
same,"Plant response rating, Bromegrass, Downy",[6]; 125 g ai/ha,25
same,"Plant response rating, Bromegrass, Downy",[6]; 250 g ai/ha,35
same,"Plant response rating, Russian Thistle",[7]; 31 g ai/ha,0
same,"Plant response rating, Russian Thistle",[7]; 62 g ai/ha,0
same,"Plant response rating, Russian Thistle",[7]; 125 g ai/ha,0
same,"Plant response rating, Wheat, Winter",[8]; 31 g ai/ha,0
same,"Plant response rating, Wheat, Winter",[8]; 62 g ai/ha,0
same,"Plant response rating, Wheat, Winter",[8]; 125 g ai/ha,0
same,"Plant response rating, Wheat, Winter",[8]; 250 g ai/ha,20
same,"Plant response rating, Lambsquarters",[9]; 31 g ai/ha,0
same,"Plant response rating, Lambsquarters",[9]; 62 g ai/ha,0
same,"Plant response rating, Lambsquarters",[9]; 125 g ai/ha,0
same,"Plant response rating, Lambsquarters",[9]; 250 g ai/ha,35
same,"Plant response rating, Radish, Wild",[17]; 31 g ai/ha,0
same,"Plant response rating, Radish, Wild",[17]; 62 g ai/ha,0
same,"Plant response rating, Radish, Wild",[17]; 125 g ai/ha,0
same,"Plant response rating, Radish, Wild",[17]; 250 g ai/ha,0
same,"Plant response rating, Barley, Winter",[10]; 31 g ai/ha,0
same,"Plant response rating, Barley, Winter",[10]; 62 g ai/ha,0
same,"Plant response rating, Barley, Winter",[10]; 125 g ai/ha,15
same,"Plant response rating, Barley, Winter",[10]; 250 g ai/ha,20
same,"Plant response rating, Oilseed Rape",[11]; 31 g ai/ha,0
same,"Plant response rating, Oilseed Rape",[11]; 62 g ai/ha,0
same,"Plant response rating, Oilseed Rape",[11]; 125 g ai/ha,0
same,"Plant response rating, Oilseed Rape",[11]; 250 g ai/ha,0
same,"Plant response rating, Pigweed",[12]; 31 g ai/ha,0
same,"Plant response rating, Pigweed",[12]; 62 g ai/ha,0
same,"Plant response rating, Pigweed",[12]; 125 g ai/ha,0
same,"Plant response rating, Pigweed",[12]; 250 g ai/ha,100
same,"Plant response rating, Foxtail, Green",[13]; 125 g ai/ha,20
same,"Plant response rating, Wheat, Spring",[14]; 31 g ai/ha,0
same,"Plant response rating, Wheat, Spring",[14]; 62 g ai/ha,0
same,"Plant response rating, Wheat, Spring",[14]; 125 g ai/ha,0
same,"Plant response rating, Wheat, Spring",[14]; 250 g ai/ha,15
same,"Plant response rating, Barley, Spring",[15]; 31 g ai/ha,20
same,"Plant response rating, Barley, Spring",[15]; 62 g ai/ha,20
same,"Plant response rating, Barley, Spring",[15]; 125 g ai/ha,20
same,"Plant response rating, Barley, Spring",[15]; 250 g ai/ha,20
same,"Plant response rating, Canarygrass",[16]; 125 g ai/ha,35
